In general, % Inhibition refers to the change of the read-out against control, counted positive when it falls. Low readings indicate a weak effect, high ones a strong effect. The pIC50 is the IC50 on a negative log10 scale, so that one unit is a factor of ten.

The record followed here is patent US4861798A, “Lipoxygenase inhibitory compounds” (Bristol-Myers Company, priority 1987, dated 1989).

Assay [1] relates to inflammatory mediators prostaglandin E2, LTB4 and TxB2. The assay can be described thus: Carrageenan sponge implantation model, mediator production in exudate. Type of assay: in vivo, rat. From the text: (§1) The carrageenan sponge implantation model is primarily used to measure the effect of antiinflammatory agents on cell infiltration. An acute inflammatory response is stimulated by the implantation of a small sponge beneath the skin of rats. The sponge normally contains an inflammatory stimulus such as carrageenan and produces a response which is characterized by infiltration of cells and accumulation of fluid. The number of cells in the exudate can be conveniently measured in the exudate fluid.
(§2) The compound of Example I was evaluated for its local effect on cell migration and mediator production in this model. For comparison, indomethacin and BW755C were also evaluated after local application. Polyester sponges were soaked in solutions of 0.5% carrageenan (in normal saline) which also contained 1% or 5% wt/vol of the test compound. The impregnated sponge was inserted through a small incision on the dorsal surface of a lightly anesthetized rat into a subcutaneous pocket formed by blunt dissection. The incision was then closed. The control treatment consisted of a sponge soaked in 0.5% carrageenan in normal saline. Animals were sacrificed 6 hours after sponge implantation. Sponges are dissected out an placed in heparinized saline. The number of infiltrating cells were determined using a coulter counter. The inflammatory mediators prostaglandin E2, LTB4 and TxB2 in the exudate were determined by radioimmunoassay.

Assay [2] has as its system cell infiltration (leukocytes). The assay can be described thus: Carrageenan sponge implantation model, cell infiltration. It is filed as in vivo, rat. The settings on record: for Leukocyte No.: 6 h.
Excerpt: as §1, §2

Assay [3] addresses T1, 5-lipoxygenase (Human Leukocyte/PMNL 5-LPO) (Homo sapiens, UniProt P09917).
T1 construct: Human neutrophils and platelets were obtained from the blood of normal volunteers; endogenous in cells; host or cells: human blood leukocytes (neutrophils) of normal volunteers, with 0.1 to 0.5 platelets per leukocyte
T1 sequence (P09917 1-674): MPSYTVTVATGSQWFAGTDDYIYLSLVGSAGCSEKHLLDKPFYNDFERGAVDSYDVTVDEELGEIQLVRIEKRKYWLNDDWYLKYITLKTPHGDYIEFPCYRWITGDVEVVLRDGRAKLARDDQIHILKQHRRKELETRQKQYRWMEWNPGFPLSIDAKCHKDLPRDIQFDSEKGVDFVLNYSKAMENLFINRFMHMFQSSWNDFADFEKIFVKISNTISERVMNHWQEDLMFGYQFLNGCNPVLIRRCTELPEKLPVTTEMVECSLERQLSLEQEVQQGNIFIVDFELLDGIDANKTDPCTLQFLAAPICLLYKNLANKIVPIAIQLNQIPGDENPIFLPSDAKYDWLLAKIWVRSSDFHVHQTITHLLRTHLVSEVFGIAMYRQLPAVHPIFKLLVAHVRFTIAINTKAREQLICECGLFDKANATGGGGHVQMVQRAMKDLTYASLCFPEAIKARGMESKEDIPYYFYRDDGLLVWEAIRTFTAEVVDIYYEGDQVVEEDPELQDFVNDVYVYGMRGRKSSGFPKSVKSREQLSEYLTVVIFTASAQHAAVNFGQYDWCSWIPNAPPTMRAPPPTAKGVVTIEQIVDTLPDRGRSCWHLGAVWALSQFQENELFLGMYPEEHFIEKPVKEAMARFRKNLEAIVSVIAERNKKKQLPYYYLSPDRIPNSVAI
The assay can be described thus: Inhibition of 5-lipoxygenase (5-HETE formation) in human neutrophil/platelet system. It is filed as cell-based. The source says:
This test is a measure of the inhibition of the synthesis of lipoxygenase products generated by human neutrophils and platelets. The protocol is similar to that described in the article "Comparative Effects of Indomethacin, Acetylenic Acids, 15-HETE, NDGA and BW755C on the Metabolism of Arachidonic Acid in Human Leukocytes and Platelets", H. Solari, P. Braquet and P. Borgeat, Prost. Leuk. Med. 13, pp. 53-60, 1984.
Human neutrophils and platelets were obtained from the blood of normal volunteers. The blood was collected into tubes containing EDTA as an anticoagulant. The blood was centrifuged at 250×g for 15 minutes and the platelet rich plasma was removed. The cell fraction was mixed with an equal volume of 0.9% saline containing 10 mM dextrose and resuspended in Dulbecco's phosphate buffered saline (PBS) without Mg^++ and Ca^++ and was counted. The cell suspension was adjusted to give a leukocyte count of 2-3×10^7 cells/ml.
Test compounds were dissolved in ethanol and added to polypropylene tubes. To control tubes (drug-free) only ethanol was added. The ethanol was evaporated to dryness under a stream of argon and then 0.1 ml of the cell suspension (2-3×10^6 cells) was added. This mixture was pre-incubated for 5 minutes at 37° and then the reaction was initiated by addition of ^3 H-arachidonic acid, calcium ionophore (A23187), and calcium ion. The final concentration of each component was: arachidonic acid, 10 uM; A23187, […]; calcium ion, […]. After 5 minutes the incubations were stopped by addition of an equal volume of methanol. The tubes were spun at 11,000 g for 2 minutes to pellet the precipitated protein. The supernatant was analyzed by HPLC for 5-HETE. The formation of this product is indicative of 5-lipoxygenase activity. Test drugs were evaluated for their ability to inhibit 5-HETE formation. Percent inhibition of varying concentrations of test drugs was determined in duplicate by comparing the peak quantitation in the presence and absence (control) of drug. […] The IC50 values were calculated from log-dose response curves of pooled data from at least two experiments by linear regression analysis.
The activity was tested by the same method as in the previous example.
The enzyme inhibitory activity of these compounds was tested by the same method.

The target of assay [4] is T2, Human Platelet CO (Homo sapiens, UniProt P23219).
T2 construct: Human neutrophils and platelets were obtained from the blood of normal volunteers; endogenous in cells; host or cells: human platelets from blood of normal volunteers
T2 sequence (P23219 24-599): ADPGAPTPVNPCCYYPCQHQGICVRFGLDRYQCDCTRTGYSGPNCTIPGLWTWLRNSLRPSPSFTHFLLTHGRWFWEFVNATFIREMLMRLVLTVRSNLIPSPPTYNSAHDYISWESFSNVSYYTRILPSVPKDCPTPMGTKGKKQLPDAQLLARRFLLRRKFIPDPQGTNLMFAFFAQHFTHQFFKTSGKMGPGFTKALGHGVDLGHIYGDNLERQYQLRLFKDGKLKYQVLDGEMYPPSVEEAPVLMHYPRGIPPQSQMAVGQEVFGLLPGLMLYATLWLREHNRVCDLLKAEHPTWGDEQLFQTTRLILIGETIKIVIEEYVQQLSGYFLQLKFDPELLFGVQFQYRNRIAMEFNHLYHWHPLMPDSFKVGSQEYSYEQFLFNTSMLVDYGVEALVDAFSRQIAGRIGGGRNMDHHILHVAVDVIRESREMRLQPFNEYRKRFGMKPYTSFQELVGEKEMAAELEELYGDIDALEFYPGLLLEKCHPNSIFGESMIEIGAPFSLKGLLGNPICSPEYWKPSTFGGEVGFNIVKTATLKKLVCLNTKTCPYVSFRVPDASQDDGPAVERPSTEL
The assay can be described thus: Inhibition of CO, human platelet. It is filed as cell-based. The settings on record: 95% confidence interval given for some.

In assay [5] the target is T3, Human Platelet 12-LPO (Homo sapiens, UniProt P18054).
T3 construct: Human neutrophils and platelets were obtained from the blood of normal volunteers; endogenous in cells; host or cells: human platelets from blood of normal volunteers
T3 sequence (P18054 1-663): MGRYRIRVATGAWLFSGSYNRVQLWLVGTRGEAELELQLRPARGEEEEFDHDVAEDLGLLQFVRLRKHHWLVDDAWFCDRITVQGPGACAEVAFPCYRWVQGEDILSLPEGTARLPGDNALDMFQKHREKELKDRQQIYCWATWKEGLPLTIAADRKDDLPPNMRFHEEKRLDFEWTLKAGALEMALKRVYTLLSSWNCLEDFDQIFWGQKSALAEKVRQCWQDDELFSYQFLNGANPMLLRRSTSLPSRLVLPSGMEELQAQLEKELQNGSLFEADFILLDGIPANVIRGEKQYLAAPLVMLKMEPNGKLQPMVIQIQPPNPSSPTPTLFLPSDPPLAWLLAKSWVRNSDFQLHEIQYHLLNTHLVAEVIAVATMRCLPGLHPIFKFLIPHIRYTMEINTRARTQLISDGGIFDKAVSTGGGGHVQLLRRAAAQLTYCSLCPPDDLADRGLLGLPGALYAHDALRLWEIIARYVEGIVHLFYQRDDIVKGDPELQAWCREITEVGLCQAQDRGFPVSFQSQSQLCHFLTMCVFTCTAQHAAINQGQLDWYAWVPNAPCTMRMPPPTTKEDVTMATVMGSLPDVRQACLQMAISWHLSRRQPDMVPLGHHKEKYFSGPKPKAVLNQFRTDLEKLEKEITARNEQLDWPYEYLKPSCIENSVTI
The assay can be described thus: Inhibition of 12-LPO, human platelet. It is filed as cell-based. To be noted: @ 100 μM; read-out: % I Human Platelet 12-LPO.

Setting [6] is: Experiment 1, 1% compound, control 3.6 ± 1.3.
Where [7] appears, read: Experiment 1, 1% compound, control 10.8 ± 3.7.
[8] abbreviates: Experiment 1, 1% compound, control 11.8 ± 4.1.
Where [9] appears, read: Experiment 2, 5% compound, control 19.2 ± 1.9.
[10] abbreviates: Experiment 2, 5% compound, control 137.6 ± 13.1.
[11] abbreviates: Experiment 2, 0.5% carrageenan plus 5% compound in sponge, control 33.0 ± 3.8.

pIC50: −log10 of the molar value.

Regarding `COc1ccc2c(c1)c(CC(=O)O)c(C)n2C(=O)c1ccc(Cl)cc1` [Indomethacin, reference compound], the TXB2 in assay [1] (setting [6]) is given as below 0.5 ng/ml Exudate. In addition, the PGE2 in assay [1] (setting [7]) came out at 1.9 ± 0.3 ng/ml Exudate. In assay [1] (setting [8]), this compound had an LTB4 of 1.6 ± 0.5 ng/ml Exudate. Besides, the “reduction of cell infiltration” value in assay [2] (dosed at 1%) is listed as “did not significantly reduce cell infiltration”.
`NC1=NN(c2cccc(C(F)(F)F)c2)CC1` [BW755C, reference compound] returned a TXB2 in assay [1] (setting [9]) of 0.8 ± 0.3 ng/ml Exudate. In assay [1] (setting [10]), this compound had a PGE2 of 3.0 ± 1.0 ng/ml Exudate. Moreover, the “Leukocyte No.” value in assay [2] (setting [11]) was 6.9 ± 1.7 cells/ml (× 10^-6). Besides, the “reduction of cell infiltration” value in assay [2] (dosed at 5%) was found to be 79%.
With `O=C(CCCCCCCCc1ccccc1)NO` [Compound 1, 9-Phenylnonanohydroxamic Acid], in assay [3] (4-alkoxyphenyl compounds), the “% Inhibition at 100 μm” value was 98.3%. Moreover, the pIC50 in assay [3] (FIG. 1 table, 95% confidence interval, read-out: IC50 Human PMNL 5-LPO) is 5.24; in assay [4], 4.82. The TXB2 in assay [1] (setting [6]) was 0.3 ± 0.1 ng/ml Exudate; in assay [1] (setting [9]), 4.1 ± 0.9 ng/ml Exudate. For the same compound, the PGE2 in assay [1] (setting [7]) is listed as 5.7 ± 0.9 ng/ml Exudate; in assay [1] (setting [10]), 21.3 ± 4.1 ng/ml Exudate. The LTB4 was 2.1 ± 1.0 ng/ml Exudate in assay [1] (setting [8]) and 2.4 ± 0.9 ng/ml Exudate in assay [1] (Experiment 2, 5% compound, control 5.5 ± 0.9). Further, the inhibition at 100 µM in assay [5] came out at 33%. For the same compound, the “Leukocyte No.” value in assay [2] (Experiment 1, 0.5% carrageenan plus 1% compound in sponge, control 10.8 ± 1.5) is given as 6.9 ± .7 cells/ml (× 10^-6); in assay [2] (setting [11]), < 1 cells/ml (× 10^-6). Moreover, the results for the “reduction of cell infiltration” value in assay [2] (dosed at 1%) and in assay [2] (dosed at 5%) were 36.1% and 96.1%, respectively. The “activity in carrageenan sponge implantation model” value in assay [2] (in words) is reported as “found to have activity in this in vivo animal system”.
